# Laboratory results as given in patent US8753841B2, “Enzyme that catalyzes a peptide-forming reaction from a carboxy component and an amine component, microbe producing the same, and a method of producing a dipeptide using the enzyme or microbe” (Ajinomoto Co., Inc., priority 2002, dated 2014).
# Assays:
# [1] = system: peptide-forming enzyme from Empedobacter brevis strain FERM BP-8113; assay: Substrate specificity of enzyme (peptide production from carboxy and amine components); assay type: biochemical; parameters: key to Formed peptide (mM): +: those peptides for which production was confirmed but which were unable to be quantified due to the absence of a standard; a trace amount; conditions: pH 9.0, 25° C.; for Formed peptide / Formed peptide (mM): L-amino acid methyl ester hydrochloride 100 mM, 3 hours; for L-Ala-L-Gln formed: carboxy component 100 mM, 200 mM L-glutamine, 2 hours
# Description: Ester specificity was examined in the case of using L-amino acid ester for the carboxy component. […] HCl represents hydrochloride in Table 4.
# Peptide production was examined in the case of using L-alanine methyl ester for the carboxy component and using various L-amino acids for the amine component.
# Peptide production was examined in the case of using various types of L-amino acid methyl esters for the carboxy component and using L-glutamine for the amine component. […] Furthermore, Tween-80 was added to the reaction system to a final concentration of 0.1% in the case of using L-Trp-OMe and L-Tyr-OMe.
# [2] = system: enzyme derived from Sphingobacterium sp. strain FERM BP-8124; assay: Substrate specificity of enzyme derived from Sphingobacterium sp.; assay type: biochemical; parameters: key to Produced peptide (mM): +: those peptides for which production was confirmed but which were unable to be quantified due to the absence of a standard; a trace amount; conditions: carboxy component 100 mM, 0.33 units enzyme, pH 9.0, 25° C., 1.5 hours
# Chain of enzyme derived from Sphingobacterium sp. strain FERM BP-8124 (as listed by the source): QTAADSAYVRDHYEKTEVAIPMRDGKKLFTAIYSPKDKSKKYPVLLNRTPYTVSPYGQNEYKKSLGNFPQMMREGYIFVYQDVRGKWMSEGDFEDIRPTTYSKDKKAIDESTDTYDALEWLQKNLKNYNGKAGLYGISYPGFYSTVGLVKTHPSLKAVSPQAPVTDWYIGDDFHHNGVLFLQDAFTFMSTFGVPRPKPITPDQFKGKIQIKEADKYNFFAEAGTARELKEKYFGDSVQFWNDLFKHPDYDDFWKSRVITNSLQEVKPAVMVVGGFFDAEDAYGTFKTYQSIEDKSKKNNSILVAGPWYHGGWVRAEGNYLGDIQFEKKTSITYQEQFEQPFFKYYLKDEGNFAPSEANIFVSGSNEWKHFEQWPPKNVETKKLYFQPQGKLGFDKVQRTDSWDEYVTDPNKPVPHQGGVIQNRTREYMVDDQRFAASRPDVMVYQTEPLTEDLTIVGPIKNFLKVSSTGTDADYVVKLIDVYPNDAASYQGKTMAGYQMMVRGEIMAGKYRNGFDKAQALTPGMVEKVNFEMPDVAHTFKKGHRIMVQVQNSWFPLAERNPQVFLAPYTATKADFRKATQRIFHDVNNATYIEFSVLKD
# [3] = system: Empedobacter brevis strain FERM BP-8113 microbial cells; assay: Production of peptide using microbial cells of Empedobacter brevis; assay type: cell-based; conditions: 1 mL 100 g/L cell suspension + 1 mL buffer with 200 mM carboxy component, 400 mM amino acid, 10 mM EDTA, pH 9.0, 18° C., 2 hours
# Procedure: A 50 mL medium (pH 6.2) containing 5 grams (g) of glucose, 5 g of ammonium sulfate, 1 g of monopotassium phosphate, 3 g of dipotassium phosphate, 0.5 g of magnesium sulfate, 10 g of yeast extract and 10 g of peptone in 1 liter (L) was transferred to a 500 mL Sakaguchi flask and sterilized at 115° C. for 15 minutes.
# Microbial cells were collected by centrifuging (10,000 rounds per minute (rpm), 15 minutes) the culture broth obtained in Example 1, followed by suspending them to a concentration of 100 g/L in 100 mM borate buffer (pH 9.0) containing 10 mM EDTA. After respectively adding 1 mL of the suspension to 1 mL each of 100 mM borate buffer solutions (pH 9.0) containing 10 mM EDTA, 200 mM of the following carboxy components, and 400 mM of the following amino acids to make a final volume of 2 mL, the reaction was carried out at 18° C. for 2 hours.
# [4] = system: peptide-forming enzyme from Empedobacter brevis strain FERM BP-8113; assay: Enzyme inhibitors: effect on L-alanyl-L-glutamine production by the Mono S fraction enzyme; assay type: biochemical; conditions: inhibitor at 10 mM, 5 minutes; for Relative activity of L-Ala-L-Gln production (%): borate buffer pH 9.0, 25° C., 100 = absence of enzyme inhibitor
# [5] = system: peptide-forming enzyme from Empedobacter brevis strain FERM BP-8113; assay: Substrate specificity of enzyme (peptide production from carboxy and amine components); assay type: biochemical; conditions: pH 9.0, 25° C., 3 hours
# [6] = Table 15-3, amine component 150 mM
# [7] = Table 15-1, amine component 150 mM
molecule,measurement,setting,value
L-Lys-L-Met,Formed peptide,[1]; L-amino acid 150 mM,6.8 mM
L-Tyr-L-Gln,Formed peptide,[1]; 150 mM L-glutamine,3.4 mM
same,Produced peptide,"[2]; Table 15-2, L-Gln 150 mM",0.6 mM
L-Thr-L-Ser,Formed peptide,[1]; L-amino acid 150 mM,58.2 mM
L-Ile-L-Gln,Formed peptide,[1]; 150 mM L-glutamine,8.4 mM
same,Produced peptide,"[2]; Table 15-2, L-Gln 150 mM",6.4 mM
L-Ser-L-Met,Formed peptide,[1]; L-amino acid 150 mM,12.5 mM
same,Produced peptide,[2]; [6],7.6 mM
L-Met-L-Phe,Formed peptide,[3],28.5 mM
same,Formed peptide,[1]; L-amino acid 150 mM,34.0 mM
same,Produced peptide,[2]; [6],8.9 mM
Gly-L-His,Formed peptide,[3],22.1 mM
same,Formed peptide,[1]; L-amino acid 150 mM,31.6 mM
same,Produced peptide,[2]; [6],36.2 mM
L-Ser-L-Phe,Formed peptide,[1]; L-amino acid 150 mM,20.3 mM
same,Produced peptide,[2]; [6],4.3 mM
L-Val-L-Met,Formed peptide,[3],10.5 mM
same,Formed peptide,[1]; L-amino acid 150 mM,10.3 mM
same,Produced peptide,[2]; [6],6.8 mM
L-Ala-L-Ser,Formed peptide,[3],51.3 mM
same,Produced peptide,[2]; [7],43.8 mM
L-Val-L-Gln,Formed peptide,[1]; 150 mM L-glutamine,15.4 mM
same,Produced peptide,"[2]; Table 15-2, L-Gln 150 mM",8.2 mM
L-Ala-L-Leu,Formed peptide,[3],38.2 mM
same,Produced peptide,[2]; [7],33.0 mM
Gly-L-Lys,Formed peptide,[1]; L-amino acid 150 mM,9.8 mM
same,Produced peptide,[2]; [6],48.2 mM
L-Val-L-Ser,Formed peptide,[1]; L-amino acid 150 mM,30.8 mM
same,Produced peptide,[2]; [6],31.9 mM
L-Val-L-Phe,Formed peptide,[1]; L-amino acid 150 mM,6.1 mM
same,Produced peptide,[2]; [6],1.0 mM
CCOC(=O)[C@H](C)N.Cl [L-Alanine ethyl ester•HCl],L-Ala-L-Gln formed,[1],91.5 mM
CCN1C(=O)C=CC1=O [N-Ethyl maleimide],Relative activity of L-Ala-L-Gln production (%),[4],110%
L-Thr-L-Met,Formed peptide,[1]; L-amino acid 150 mM,38.6 mM
same,Produced peptide,[2]; [6],28.9 mM
"N=C(N)Nc1ccc(C(=O)Oc2ccc([N+](=O)[O-])cc2)cc1 [p-Nitrophenyl-p′-guanidino benzoate, p-nitrophenyl-p′-guanidinobenzoate]",Relative activity of L-Ala-L-Gln production (%),[4],0.1%
same,inhibition of the enzyme by serine enzyme inhibitors (in words),"[4]; pH 9.0, 25° C.",inhibited
L-Ala-L-Met,Formed peptide,[3],68.3 mM
same,Formed peptide,"[5]; L-amino acid amide hydrochloride 100 mM as carboxy component, L-amino acid 150 mM",3.4 mM
same,Produced peptide,[2]; [7],86.9 mM
same,Produced peptide (mM),"[2]; Table 15-4, amine component 150 mM",tr
C[C@H](N)C(=O)OC(C)(C)C.Cl [L-Alanine-t-butyl ester•HCl],L-Ala-L-Gln formed,[1],7.5 mM
L-Met-L-Ser,Formed peptide,[1]; L-amino acid 150 mM,12.8 mM
same,Produced peptide,[2]; [6],25.3 mM
β-L-Asp-L-Gln,Formed peptide (mM),[1]; 150 mM L-glutamine,tr
L-Met-L-Gln,Formed peptide,[1]; 150 mM L-glutamine,12.0 mM
same,Produced peptide,"[2]; Table 15-2, L-Gln 150 mM",32.6 mM
c1cnc2c(c1)ccc1cccnc12 [o-Phenanthroline],Relative activity of L-Ala-L-Gln production (%),[4],96%
Gly-L-Phe,Produced peptide,"[5]; oligopeptide production, amount of enzyme 0.1 unit",17.3 mM
same,Formed peptide,[1]; L-amino acid 150 mM,44.0 mM
same,Produced peptide,[2]; [6],20.0 mM
L-Ala-L-Arg,Formed peptide,[3],72.1 mM
same,Produced peptide,[2]; [7],72.2 mM
L-Asn-L-Gln,Formed peptide (mM),[1]; 150 mM L-glutamine,+
L-Ala-L-Phe,Formed peptide,[3],62.4 mM
same,Produced peptide,[2]; [7],69.5 mM
Gly-L-Gln,Formed peptide,[1]; 150 mM L-glutamine,54.7 mM
same,Produced peptide,"[2]; Table 15-2, L-Gln 150 mM",61.1 mM
L-Met-L-Met,Formed peptide,[1]; L-amino acid 150 mM,25.0 mM
same,Produced peptide,[2]; [6],28.4 mM
L-Thr-L-Leu,Formed peptide,[3],23.0 mM
same,Formed peptide,[1]; L-amino acid 150 mM,28.4 mM
same,Produced peptide,[2]; [6],15.3 mM
CC(C)OC(=O)[C@H](C)N.Cl [L-Alanine isopropyl ester•HCl],L-Ala-L-Gln formed,[1],78.9 mM
α-L-Glu-L-Gln,Formed peptide (mM),[1]; 150 mM L-glutamine,+
L-Ile-L-Phe,Formed peptide,[1]; L-amino acid 150 mM,5.2 mM
same,Produced peptide,[2]; [6],1.5 mM
γ-L-Glu-L-Gln,Formed peptide (mM),[1]; 150 mM L-glutamine,+
"O=C(O)CN(CCN(CC(=O)O)CC(=O)O)CC(=O)O [EDTA, ethylene diamine tetraacetic acid]",Relative activity of L-Ala-L-Gln production (%),[4],96%
L-Thr-Gly,Formed peptide,[1]; L-amino acid 150 mM,9.4 mM
same,Produced peptide,[2]; [6],0.4 mM
L-Arg-L-Gln,Formed peptide,[1]; 150 mM L-glutamine,7.1 mM
same,Produced peptide,"[2]; Table 15-2, L-Gln 150 mM",17.2 mM
